{"source": "patent US20150253330A1", "about": "“PRE-SELECTION OF SUBJECTS FOR THERAPEUTIC TREATMENT WITH AN HSP90 INHIBITOR BASED ON HYPOXIC STATUS” (Synta Pharmaceuticals Corp., priority 2012, published 2015)", "key": {"advanced NSCLC": {"system": "advanced NSCLC", "assay": "Phase 2 clinical trial in NSCLC by KRAS, EGFR and ALK mutation status", "format": "in vivo, human", "description": "Patients with advanced NSCLC who failed prior treatments received 200 mg/m^2 of ganetespib as a 1-hr infusion once weekly for 3 of a 4-wk cycle in a Simon two-stage study design assessing primary endpoint of PFS rate at 16 wks. Initial cohorts were defined by mutation status: A) EGFR mutation, KRAS wild-type B) EGFR wild-type, KRAS mutation C) EGFR wild-type, KRAS wild-type (WT). If ≧2/14 patients in A, B or C were progression-free at 16 weeks, enrollment increased to 23 patients for that cohort. Tumor response was assessed every 8 weeks. Cohort D was added to include 35 additional EGFR wild-type and KRAS wild-type patients with adenocarcinoma histology. FISH analysis for ALK translocation, was performed for Cohorts C and D."}, "HGC-27": {"system": "HGC-27", "assay": "72 hr viability by Syto60, gastric cell line", "format": "cell-based", "conditions": "Homo sapiens, Syto60 (lower), read-out: ganetespib IC50"}, "HIF-1α and VEGF": {"system": "HIF-1α and VEGF", "assay": "Western blot of HIF-1α and VEGF in pancreatic cancer cell lines", "format": "cell-based", "conditions": "50 nM, 24 h", "description": "(§1) It's postulated that functional inhibition of Hsp90 by ganetespib can inhibit angiogenesis and growth in vitro and in vivo models of pancreatic cancer. PANC-1 and HPAC cell lines were treated with vehicle or G (50 nM) for 24 h and lysates were analyzed by Western blot. Egg CAM and matrigel plug assays were performed to quantify the effects of ganetespib on angiogenesis. Efficacy of ganetespib (100 mg/kg) was assessed in mice bearing HPAC and ASPC-1 xenograft.\nPrimary antibodies specific to Hsp90, HIF-1α, VEGF, Actin and HRP conjugated secondary antibodies (Santa Cruz Biotechnology, California and Cell Signaling Technology, USA) were used for Western blot. Ganetespib was provided by Synta Pharmaceuticals, Lexington, Mass. and Matrigel was purchased from BD Biosciences.\nCells were harvested at the end of treatment and lysed in the RIPA protein extraction buffer (Sigma-Aldrich, Saint Louis, Mo., USA) containing the protease inhibitor cocktail. Equal amounts of protein fractions of lysates were resolved over SDS-PAGE and transferred on to PVDF membrane. Membranes were incubated with primary antibodies followed by HRP-conjugated secondary antibodies. Bound antibodies were visualized using enhanced chemiluminescence. To confirm equal loading, membranes were verified and re-probed with an antibody specific for the housekeeping gene, anti-β-actin."}, "solid tumors": {"system": "solid tumors", "assay": "Phase 1 trial of ganetespib in combination with docetaxel in solid tumors", "format": "in vivo, human", "description": "A trial to evaluate three dose-level combinations of docetaxel and ganetespib, administered on a three-week cycle, with the primary objective of determining an optimal dose for future clinical trials was performed. Docetaxel was administered as a one hour IV infusion on day 1 and ganetespib was administered as a one hour IV infusion on days 1 and 15. The dose level combinations evaluated were 150 mg/m^2 and 60 mg/m^2; 150 mg/m^2 and 75 mg/m^2; and 200 mg/m^2 and 75 mg/m^2 for ganetespib and docetaxel respectively. The standard of care dose level for docetaxel was 75 mg/m^2. A total of 19 patients received at least one dose of study treatment at the cut-off time. The median number of cycles of treatment was 4, with a range of 1 to 11 cycles of treatment. No prophylactic treatment for neutropenia was used. The combination of ganetespib at 150 mg/m^2 and docetaxel at 75 mg/m^2 was selected as the recommended dose."}, "OCUB-M": {"system": "OCUB-M", "assay": "72 hr viability by CTG, breast cancer cell line", "format": "cell-based", "conditions": "Basal", "description": "(§2) Breast cancer is a heterogeneous disease historically broken down into 4 subtypes. Various compounds were tested for their effects in cell viability assays using various breast cancer cell lines. Cellular viability was assessed using the CellTiter-Glo® Luminescent Cell Viability Assay (Promega, Madison, Wis., USA) according to the manufacturer's protocol. KRAS mutant NSCLC cell lines were seeded into 96-well plates based on optimal growth rates determined empirically for each line. Twenty-four hours after plating, cells were dosed with graded concentrations of ganetespib for 72 h. CellTiter-Glo® was added (50% v/v) to the cells, and the plates incubated for 10 min prior to luminescent detection in a SpectraMax® Plus 384 microplate reader (Molecular Devices, Sunnyvale, Calif., USA). Data were normalized to percent of control and IC50 values used to determine the sensitivity of each line. For the comparative analysis study with MEK and PI3K/mTOR inhibitors, A549, H2009, Calu-1, and H358 cells were treated with graded concentrations of ganetespib, AZD6244, or BEZ235 for 72 h and cell viability measured as above.\n(§3) Breast cancer, cell lines, marker status, and IC50 in response to ganetespib at 72 hr (viability by CTG)."}, "MCF7": {"system": "MCF7", "assay": "72 hr viability by CTG, breast cancer cell line", "format": "cell-based", "conditions": "Homo sapiens, MCF7, Luminal, ER+ PR+", "description": "as §2, §3"}, "BT-474": {"system": "BT-474", "assay": "72 hr viability by CTG, breast cancer cell line", "format": "cell-based", "conditions": "Homo sapiens, BT-474, Luminal, ER+ PR+ HER2+, viability by CTG (2D)", "description": "as §2, §3"}, "SK-BR-3": {"system": "SK-BR-3", "assay": "72 hr viability by CTG, breast cancer cell line", "format": "cell-based", "conditions": "Homo sapiens, SK-BR-3, Luminal, HER2+", "description": "as §2, §3"}, "MDA-MB-468": {"system": "MDA-MB-468", "assay": "72 hr viability by CTG, breast cancer cell line", "format": "cell-based", "conditions": "Homo sapiens, MDA-MB-468, Basal A", "description": "as §2, §3"}, "VEGF secretion": {"system": "VEGF secretion", "assay": "VEGF ELISA of conditioned medium of pancreatic cancer cell lines", "format": "cell-based", "description": "VEGF concentration in the conditioned medium (from control and treated cells) was determined using a commercial Human VEGF Quantikine ELISA kit (R&D systems, Minneapolis, Minn.) as per manufacturer's instructions."}, "angiogenesis": {"system": "angiogenesis", "assay": "Egg CAM and matrigel plug angiogenesis assays", "design": "species or system chicken", "conditions": "all three models", "description": "The conditioned medium was collected from control and treated cells. 100 μl of conditioned medium, either control or treated, was injected into fertilized chicken eggs. Eggs were incubated at 37° C. for 15 days, then dissected and the membrane was photographed.\nas §1\nMia-PaCa2, PANC-1 and HPAC cells were treated with Ganetespib (50 nM) or control for 24 hours, the conditioned medium was harvested and 100 μl of conditioned or control medium was injected into fertilized chicken eggs (Avian Vaccine Service center, North Franklin, Conn.). Eggs were incubated at 37° C. for 15 days and dissected. Chorioallantoic membrane was photographed."}, "GT3TKB": {"system": "GT3TKB", "assay": "72 hr viability by Syto60, gastric cell line", "format": "cell-based", "conditions": "Syto60 (lower), read-out: ganetespib IC50"}, "[1]": {"conditions": "Cohort C: EGFR wild-type, KRAS wild-type"}}, "note": "Entries after “also recorded” stand apart in the source; their conditions may differ."}
{"smiles": "CC(C)c1cc(-c2nnc(O)n2-c2ccc3c(ccn3C)c2)c(O)cc1O", "note": "[ganetespib]", "values": [{"measurement": "Adverse events reported in ≧20% of patients", "setting": "advanced NSCLC; 200 mg/m^2 once weekly for 3 of a 4-wk cycle, generally grade 1-2", "value": "diarrhea, fatigue, nausea, anorexia, constipation, and dyspnea"}, {"measurement": "Objective response rate (CR+PR)", "setting": "advanced NSCLC; ALK+ patients, 4/8", "value": 50, "unit": "%"}, {"measurement": "Disease control rate", "setting": "advanced NSCLC; ALK+ patients, 7/8", "value": 88, "unit": "%"}, {"measurement": "Patients with prolonged stable disease (≧16 weeks)", "setting": "advanced NSCLC; [1]", "value": "seven"}, {"measurement": "Response in cohort C", "setting": "advanced NSCLC; [1]", "value": "durable partial response (PR)"}, {"measurement": "ALK+ patients with tumor shrinkage in target lesions", "setting": "advanced NSCLC; eight ALK+ patients of cohorts C and D (six of eight)", "value": 75, "unit": "%"}, {"measurement": "Tolerability", "setting": "advanced NSCLC; single agent 200 mg/m^2 once weekly, without severe liver, ocular, cardiovascular or renal toxicity", "value": "well-tolerated"}, {"measurement": "IC50", "setting": "HGC-27", "value": 11, "unit": "nM"}, {"measurement": "HIF-1α and VEGF protein levels", "setting": "HIF-1α and VEGF", "value": "decreased HIF-1α a and VEGF expression; also recorded: decreased levels"}, {"measurement": "Febrile neutropenia", "setting": "solid tumors; four patients, ganetespib in combination with docetaxel", "value": 22, "unit": "%"}, {"measurement": "Neutropenia (most common adverse event)", "setting": "solid tumors; ganetespib in combination with docetaxel", "value": 67, "unit": "%"}, {"measurement": "Recommended dose of ganetespib", "setting": "solid tumors; in combination with docetaxel at 75 mg/m^2", "value": 150, "unit": "mg/m^2"}, {"measurement": "Serious adverse events", "setting": "solid tumors; nine patients, ganetespib in combination with docetaxel", "value": 50, "unit": "%"}, {"measurement": "Shrinkage of target tumor lesions", "setting": "solid tumors; one patient with cancer of the parotid gland, ganetespib with docetaxel", "value": "over 50%"}, {"measurement": "Effect of ganetespib on docetaxel pharmacokinetics", "setting": "solid tumors; patients", "value": "no effect"}, {"measurement": "Pharmacokinetics of ganetespib alone versus prior to docetaxel", "setting": "solid tumors; patients", "value": "pharmacokinetic similarity"}, {"measurement": "IC50", "setting": "OCUB-M", "value": 39, "unit": "nM"}, {"measurement": "IC50", "setting": "MCF7", "value": 25, "unit": "nM"}, {"measurement": "IC50", "setting": "BT-474", "value": 13, "unit": "nM"}, {"measurement": "IC50", "setting": "SK-BR-3", "value": 10, "unit": "nM"}, {"measurement": "IC50", "setting": "MDA-MB-468", "value": 27, "unit": "nM"}, {"measurement": "VEGF secretion in the culture medium", "setting": "VEGF secretion", "value": "reduced VEGF secretion; also recorded: decrease in VEGF secretion; also recorded: down-regulation of VEGF secretion"}, {"measurement": "Angiogenesis compared to vehicle", "setting": "angiogenesis", "value": "reduced angiogenesis"}, {"measurement": "IC50", "setting": "GT3TKB", "value": 6, "unit": "nM"}]}
